Reference: US11369589B2, “Modulator of indoleamine 2,3-dioxygenase, preparation method and use thereof” (NANJING CAREPHAR SHENGHUI PHARMACEUTICAL CO., LTD., priority 2018, dated 2022)

How the values were obtained:
Type in all cases: in vitro ADME
[1] = Original drug Epacadostat plasma stability test (Embodiment 7.4); settings: rat plasma, 37° C.
Method: Liquid chromatograph: Waters 2489UV/Visible Detector, Waters 1525BinaryHPLC Pump.
(§1) Mobile phase: acetonitrile (50% to 80%) and water gradient elution.
(§2) Flow rate: 1 mL/min at a column temperature of 25° C.
(§3) Detection wavelength: 254 nm at a sample size of 10 μL.
(§4) Under the condition of no mobile phase interference, the Epacadostat retention time was about 20 min.
(§5) 120 μL of the sample was precisely sucked at a specified time point each time. 120 μL of acetonitrile was added. High-speed vortex mixing was performed for 2 min. Centrifugation was performed at 10000 r/min for 15 min. Supernatant was taken and filtered by a 13 mm 0.45 μm filter membrane, and then determination could be performed.
20 μL of DMSO solution (120 mg/mL) of Epacadostat was taken and added into 1.18 mL of fresh rat blank plasma. Incubation was performed at 37° C. 120 μL of sample was taken at different time points respectively. Sample pretreatment was performed according to the method of 7.3. Determination was performed by an HPLC method. A peak area was recorded, and a drug concentration was calculated.

[2] = Original drug Epacadostat plasma stability test (Embodiment 14, 6.4); settings: rat plasma, 37° C.
Method: Liquid chromatograph: Waters 2489UV/Visible Detector, Waters 1525Binary HPLC Pump.
as §1, §2, §3, §4, §5
20 μL of DMSO solution (120 mg/mL) of Epacadostat was taken and added into 1.18 mL of fresh rat blank plasma. Incubation was performed at 37° C. 120 μL of sample was taken at different time points respectively. Sample pretreatment was performed according to the method of 6.3. Determination was performed by an HPLC method. A peak area was recorded, and a drug concentration was calculated.

[3] = In vitro plasma conversion experiment of target compounds (Embodiment 7.5); settings: rat, 2 mg/mL (as Epacadostat equivalents)
Method: as §1, §2, §3
The target compounds were dissolved into a DMSO solvent. […] 20 μL of the solution was taken and added into 1.18 mL of fresh rat blank plasma, and incubation was carried out at 37° C. to obtain a sample.
as §5
Incubation was performed at 37° C. 120 μL of sample was taken at different time points respectively. Sample pretreatment was performed according to the method of 7.3. Determination was performed by an HPLC method. A peak area was recorded, and a drug concentration was calculated.
According to the method of 7.4, we performed in vitro plasma conversion experiment on the target compounds to test conversion rates of the compounds converted into the Epacadostat at different time points.

Row | Epacadostat concentration in plasma ([1]; time 1 h) [mg/mL] | Epacadostat concentration in plasma ([1]; time 3 h) [mg/mL] | Epacadostat concentration in plasma ([1]; time 6 h) [mg/mL] | Epacadostat concentration in plasma ([1]; time 24 h) [mg/mL] | Stability in plasma (in words) ([1]; up to 24 h) | Epacadostat concentration in plasma ([2]; time 1 h) [mg/mL] | Epacadostat concentration in plasma ([2]; time 3 h) [mg/mL] | Epacadostat concentration in plasma ([2]; time 6 h) [mg/mL] | Epacadostat concentration in plasma ([2]; time 24 h) [mg/mL] | Stability in plasma (in words) ([2]; up to 24 h) | Conversion rate into Epacadostat ([3]; 0.5 h) [%] | Conversion rate into Epacadostat ([3]; 1 h) [%] | Conversion rate into Epacadostat ([3]; 2 h) [%] | Conversion rate into Epacadostat ([3]; 3 h) [%] | Conversion rate into Epacadostat ([3]; 6 h) [%] | Conversion rate into Epacadostat ([3]; 12 h) [%] | SMILES
1 | 1.22 | 1.20 | 1.24 | 1.20 | can stably exist in the plasma | 1.22 | 1.20 | 1.24 | 1.20 | can stably exist in the plasma |  |  |  |  |  |  | NS(=O)(=O)NCCNc1nonc1C(=NO)Nc1ccc(F)c(Br)c1 [Epacadostat]
2 |  |  |  |  |  |  |  |  |  |  | 33.7 | 56.3 | 77.2 | 87.2 | 93.8 | 100 | CC(C)C(=O)O/N=C(\Nc1ccc(F)c(Br)c1)c1nonc1NCCNS(=O)(=O)N=Cc1cccs1 [II-1]
3 |  |  |  |  |  |  |  |  |  |  | 31.1 | 43.1 | 58.3 | 70.3 | 88.3 | 98.3 | CCCC(=O)O/N=C(\Nc1ccc(F)c(Br)c1)c1nonc1NCCNS(=O)(=O)N=Cc1ccc(N(C)C)cc1 [II-3]
4 |  |  |  |  |  |  |  |  |  |  | 47.2 | 49.0 | 51.6 | 75.2 | 89.6 | 100 | CCCCC(=O)O/N=C(\Nc1ccc(F)c(Br)c1)c1nonc1NCCNS(=O)(=O)N=Cc1ccc(Cl)s1 [II-4]
